Test results: article PMC3161034 (BMC Cancer, 2011)

Assays:
[1] = tested on: patients with solid tumors; assay: Adverse events graded by CTCAE version 3.0, relatedness by investigator; type: in vivo, human; conditions: for Patients discontinuing treatment with the drug because of adverse events: all cohorts
Experimental: Cohort enrollment could be expanded to ensure that at least 6 evaluable patients were enrolled or in the event of unresolved safety, pharmacokinetic, or other concerns. The overall sample size could be further increased if additional dose cohorts were considered justified based on the results from the dose-escalation portion of the study. For continuous endpoints, the mean, standard error or standard deviation (SD); median; 25th and 75th percentiles; and minimum and maximum were calculated. For discrete data, the frequency and percent distributions were calculated. No formal comparisons between cohorts were performed. The data were analyzed using SAS software version 8.2 (SAS Institute, Cary, NC). […] The safety analysis set included all patients who received at least 1 dose of study therapy.

clinical = conditions: for Tmax: Median tmax
Experimental: Plasma concentrations of motesanib were analyzed using a validated liquid chromatography/tandem mass spectrometry (LC-MS/MS) method with a lower limit of quantitation (LLOQ) of 0.2 ng/mL (Cedra Corp., Austin, TX).
Pharmacokinetic parameter estimates were calculated according to standard noncompartmental methods using WinNonlin software (version 5.1.1; Pharsight Corporation, Mountain View, CA) and summarized by dose level. […] For the BID cohort, AUC0—24 values for motesanib were determined by 2 × AUC0—12. The terminal elimination rate constant (λZ) was determined by linear regression of the natural logarithms of plasma concentrations versus time during the terminal phase; the corresponding t1/2 was calculated.
The GLSM were calculated by first obtaining the least squares means for the log-transformed Cmax values (logCmax) and AUC0—24 values (logAUC0—24) for weeks 3 and 2, and then converting these values back to the original scale. The ratio and 90% confidence interval (CI) of GLSM was calculated by first estimating the difference (and 90% CI) in the least squares means between weeks 3 and 2 for logCmax and logAUC0—24, and then converting the numbers back to their original scale.

[2] = tested on: patients with advanced NSCLC; conditions: cited from earlier work
[3] = tested on: cytochrome P450 (CYP) 3A4; conditions: cited from earlier work
CYP1A2 = conditions: cited from earlier work
deoxycytidine deaminase = tested on: deoxycytidine deaminase; parameters: method as in PMID 16807468; conditions: cited from earlier work
[4] = 56 patients who received erlotinib

Work on `C#Cc1cccc(Nc2ncnc3cc(OCCOC)c(OCCOC)cc23)c1` [erlotinib] yielded an Erlotinib-related anorexia [1, 4] of 16 n, an Erlotinib-related diarrhea [1, 4] of 35 n and an Erlotinib-related fatigue [1, 4] of 14 n. It also gave an Erlotinib-related nausea [1, 4] of 23 n, an Erlotinib-related rash [1, 4] of 42 n and an Erlotinib-related vomiting [1, 4] of 15 n. For the same compound, the “Patients discontinuing treatment with the drug because of adverse events” value [1] was 7 n, the “Incidence of erlotinib-related skin rash” value ([1]; present study, all patients) was 75% and the “Mean t1/2, z” value (clinical; human, in vivo, 100 mg) was 12 to 19 h. It also gave a half-life (clinical; human, in vivo, 100 mg, Mean t1/2, z) of 1020 to 1980 min, a Tmax (clinical; human, in vivo, 100 mg) of 2 to 6 h and a Median tmax (clinical; human, in vivo, 150 mg) of 2 to 4 h. The Tmax (clinical; human, in vivo, 150 mg) was 1 to 3 h, the Overall median tmax (clinical; week 3, 100 mg erlotinib QD with gemcitabine and motesanib) was 2 h and the Progression-free survival ([2]; phase 3, advanced NSCLC after failed first-line therapy) was 1.7 mo. The Response rate ([2]; phase 3, P = 0.006) was 6.2%, the Overall survival ([2]; phase 3) was 9.2 mo and the “Metabolism by CYP3A4” value [3] was “metabolized at least in part”. The “Metabolism by CYP1A2” value (CYP1A2) was “metabolized at least in part”.
In the case of `Nc1ccn([C@@H]2O[C@H](CO)[C@@H](O)C2(F)F)c(=O)n1` [gemcitabine, reference compound], the “Patients discontinuing treatment with the drug because of adverse events” value [1] is listed as 8 n and the “Metabolism by deoxycytidine deaminase” value (deoxycytidine deaminase) is listed as “primarily metabolized”.
